Assays:
human CSNK1G3 = human CSNK1G3 (Homo sapiens (Human), UniProt Q9Y6M4); test: CSNK1G3 assay (ADP-Glo); format: biochemical; conditions: median, read-out: CSNK1G IC50 [mol/l] (median)
Description: CSNK1G3-inhibitory activity of compounds of the present invention in presence of 1 μM adenosine-tri-phosphate (ATP) was quantified employing the CSNK1G3 assay as described in the following paragraphs. In essence, the enzyme activity is measured by quantification of the adenosine-di-phosphate (ADP), which is generated as a co-product of the enzyme reaction, via the “ADP-Glo™ Kinase Assay” kit from the company Promega. This detection system works as follows: In a first step the ATP not consumed in the kinase reaction is quantitatively converted to CAMP employing an adenylate cyclase (“ADP-Glo-reagent”), then the adenylate cyclase is stopped and the ADP generated in the kinase reaction converted to ATP which generates in a luciferase-based reaction a glow-luminescence signal (“Kinase Detection Reagent”).
Recombinant fusion protein of N-terminal Glutathion-S-Transferase (GST) and full-length human CSNK1G3, expressed by baculovirus infected insect cells and purified via Glutathion affinity chromatography, was purchased from Life Technologies (product no. PV3838) and used as enzyme. As substrate for the kinase reaction the biotinylated peptide biotin-Ahx-KRRRAL-pS-VASLPGL (C-terminus in amide form) was used which can be purchased e.g. from the company Biosyntan (Berlin-Buch, Germany).
For the assay 50 nl of a 100 fold concentrated solution of the test compound in DMSO was pipetted into a white 1536-well microtiter plate (Greiner Bio-One, Frickenhausen, Germany), 2 μL of a solution of CSNK1G3 in aqueous assay buffer [50 mM HEPES pH 7.5, 10% (v/v) glycerol, 10 mM MgCl2, 50 mM NaCl, 1 mM dithiothreitol, 0.01% (w/v) bovine serum albumin, 0.01% (v/v) Triton X-100] were added and the mixture was incubated for 15 min at 22° C. to allow pre-binding of the test compounds to the enzyme before the start of the kinase reaction. Then the kinase reaction was started by the addition of 3 μL of a solution of ATP ([…]=>final conc. in the 5 μL assay volume is 1 M) and peptide substrate (50 μM=>final conc. in the 5 μL assay volume is 30 μM) in assay buffer and the resulting mixture was incubated for a reaction time of 30 min at 22° C. The concentration of CSNK1G3 was adjusted depending of the activity of the enzyme lot and was chosen appropriate to have the assay in the linear range, a typical concentration is about 0.06 ng/μL. The reaction was stopped by the addition of 2.5 μL of “ADP-Glo-reagent” (1:1.5 fold diluted with water) and the resulting mixture was incubated at 22° C. for 1 h to convert the ATP not consumed in the kinase reaction completely to CAMP. Subsequently 2.5 μL of the “kinase detection reagent” (1.2 fold more concentrated than recommended by the producer) were added, the resulting mixture was incubated at 22° C. for 1 h and then the luminescence measured with a suitable measurement instrument (e.g. Viewlux™ from Perkin-Elmer). The amount of emitted light was taken as a measure for the amount of ADP generated and thereby for the activity of the CSNK1G3.
The data were normalised (enzyme reaction without inhibitor=0% inhibition, all other assay components but no enzyme=100% inhibition).

HT-29 cells = test: HT29 cell proliferation assay, CTG method; format: cell-based; conditions: Homo sapiens; HT-29, CTG, 96 h; median; read-out: 2D-PROLI HT-29 CTG 96 h, IC50 - [mol/l] (median)
Description: CELL PROLIFERATION ASSAY CTG METHOD, 384-well version: Day 1: plated 400 cells/30 μL/well in growth medium (DMEM/Ham's F12; (Biochrom; #FG 4815, mit stabilem Glutamin)+FCS (final: 10%); (Biochrom; #S 0415)) in 384-well black plates (Corning #3571). Plated sister wells in a separate plate for time zero determination. Incubated all plates overnight at 37° C. Day 2: added test compounds in serial dilutions using the HP D300 Digital Dispenser and incubated at 37° C. for 96 h. Measured time zero plate: add 30 μL/well CTG solution (Promega CellTiter-Glo solution (catalog #G7573)) to wells in time zero plate; incubated for 2 minutes in a orbital shaker to induce cell lysis; allowed the plate to incubate at room temperature for additional 10 min to stabilize luminescent signal and read luminescence on PheraStar (rapid mode—0.02 sec/well; GAIN 3000). Day 6: Added 30 μL/well CTG solution to all test wells, incubated for 2 minutes in a orbital shaker to induce cell lysis; allowed the plate to incubate at room temperature for additional 10 min to stabilize luminescent signal and read luminescence on PheraStar (rapid mode—0.02 sec/well; GAIN 3000 Proliferation IC50s were calculated using the DRC application in ShiNy Analysis Platform-SNAP.”

HCT 116 cells = test: HCT 116 cell proliferation assay, CTG; format: cell-based; conditions: Homo sapiens; HCT 116, CTG, 96 h; median; read-out: 2D-PROLI HCT 116 CTG 96 h, IC50 - [mol/l] (median)
Description: 400 HCT 116 cells/30 μL/well were plated in growth medium (DMEM/Ham's F12, 10% FCS) in a 384-well plate (CORNING #3571) at day 1. Reference plate was seeded for time zero determination. All plates were incubated overnight 37° C. Day 2: test compound was added in 7-step dilution and incubate at 37° C. for 96 h. Day 2: time zero plate: 30 μL/well CTG solution (Promega Cell Titer Glo solution; catalog #G755B and G756B) were added, incubated for 30 minutes, read luminescence on PheraStar. Day 6: compound treated plates: 30 μL/well CTG solution (Promega Cell Titer Glo solution; catalog #G755B and G756B) were added, incubated for 30 minutes, luminescence was read on PheraStar. Proliferation was calculated after subtracting time zero luminescence values from day 6 values and comparing to untreated wells. The IC50 values were determined using the four parameter fit.

Sequence of human CSNK1G3 (Q9Y6M4 whole entry): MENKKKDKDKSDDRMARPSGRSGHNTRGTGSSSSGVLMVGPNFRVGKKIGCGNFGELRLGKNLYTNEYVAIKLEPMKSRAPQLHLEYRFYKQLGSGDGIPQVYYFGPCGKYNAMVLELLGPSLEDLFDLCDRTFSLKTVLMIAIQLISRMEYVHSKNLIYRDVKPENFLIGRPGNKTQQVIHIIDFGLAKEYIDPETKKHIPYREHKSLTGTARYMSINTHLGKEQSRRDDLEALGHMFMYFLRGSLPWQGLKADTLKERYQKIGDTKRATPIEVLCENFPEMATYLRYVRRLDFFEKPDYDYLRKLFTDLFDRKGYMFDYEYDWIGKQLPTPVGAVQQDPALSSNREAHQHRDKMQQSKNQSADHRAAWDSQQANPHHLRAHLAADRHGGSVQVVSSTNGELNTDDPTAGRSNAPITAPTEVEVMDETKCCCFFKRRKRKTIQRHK

Compound	IC50 (human CSNK1G3)	IC50 (HT-29 cells)	IC50 (HCT 116 cells)
Cn1cc(CC(=O)Nc2cc(-c3[nH]c4cccnc4c3-c3ccccn3)ccn2)cn1 [Example 2, 2-(1-methylpyrazol-4-yl)-N-[4-[3-(2-pyridyl)-^1H-pyrrolo[3,2-b]pyridin-2-yl]-2-pyridyl]acetamide]	102 nM	2670 nM	3600 nM
Cc1cc(CC(=O)Nc2cc(-c3[nH]c4cccnc4c3-c3ccccn3)ccn2)n(C)n1 [Example 14]	35.4 nM	508 nM	544 nM
O=C(Cc1ccon1)Nc1cc(-c2[nH]c3cccnc3c2-c2ccccn2)ccn1 [Example 10, 2-isoxazol-3-yl-N-[4-[3-(2-pyridyl)-^1H-pyrrolo[3,2-b]pyridin-2-yl]-2-pyridyl]acetamide]	33 nM	797 nM	848 nM
O=C(Cc1cc2ccccn2n1)Nc1cc(-c2[nH]c3cccnc3c2-c2ccccn2)ccn1 [Example 15, 2-pyrazolo[1,5-a]pyridin-2-yl-N-[4-[3-(2-pyridyl)-^1H-pyrrolo[3,2-b]pyridin-2-yl]-2-pyridyl]acetamide]	10.3 nM	149 nM	171 nM
Cc1cc(CC(=O)Nc2cc(-c3[nH]c4cccnc4c3-c3ccccn3)ccn2)on1 [Example 13, 2-(3-methylisoxazol-5-yl)-N-[4-[3-(2-pyridyl)-^1H-pyrrolo[3,2-b]pyridin-2-yl]-2-pyridyl]acetamide]	28.6 nM	442 nM	626 nM
Cc1cc(CC(=O)Nc2cc(-c3[nH]c4cccnc4c3-c3ccccn3)ccn2)nn1C [Example 16, 2-(1,5-dimethylpyrazol-3-yl)-N-[4-[3-(2-pyridyl)-^1H-pyrrolo[3,2-b]pyridin-2-yl]-2-pyridyl]acetamide]	31.7 nM	627 nM	706 nM
Cn1cnc(CC(=O)Nc2cc(-c3[nH]c4cccnc4c3-c3ccccn3)ccn2)c1 [Example 5, 2-(1-methylimidazol-4-yl)-N-[4-[3-(2-pyridyl)-^1H-pyrrolo[3,2-b]pyridin-2-yl]-2-pyridyl]acetamide]	74.5 nM	3420 nM	2790 nM
O=C(Cc1cnco1)Nc1cc(-c2[nH]c3cccnc3c2-c2ccccn2)ccn1 [Example 4]		588 nM	535 nM

The remaining compounds from weak to strong by IC50 (HT-29 cells), led by results:

IC50 (human CSNK1G3)	IC50 (HT-29 cells)	IC50 (HCT 116 cells)	Compound
62.7 nM	1240 nM	1680 nM	Cn1cc(C(CC(F)F)C(=O)Nc2cc(-c3[nH]c4cccnc4c3-c3ccccn3)ccn2)cn1 (centres unmarked) [Example 19, 4,4-difluoro-2-(1-methylpyrazol-4-yl)-N-[4-[3-(2-pyridyl)-^1H-pyrrolo[3,2-b]pyridin-2-yl]-2-pyridyl]butanamide]
62.6 nM	1190 nM	1080 nM	Cc1noc(C)c1CC(=O)Nc1cc(-c2[nH]c3cccnc3c2-c2ccccn2)ccn1 [Example 12, 2-(3,5-dimethylisoxazol-4-yl)-N-[4-[3-(2-pyridyl)-^1H-pyrrolo[3,2-b]pyridin-2-yl]-2-pyridyl]acetamide]
68.2 nM	1180 nM	1030 nM	Cc1nn(C)c(C)c1CC(=O)Nc1cc(-c2[nH]c3cccnc3c2-c2ccccn2)ccn1 [Example 17, N-[4-[3-(2-pyridyl)-^1H-pyrrolo[3,2-b]pyridin-2-yl]-2-pyridyl]-2-(1,3,5-trimethylpyrazol-4-yl)acetamide]
51.2 nM	860 nM	817 nM	Cc1nn(C)cc1CC(=O)Nc1cc(-c2[nH]c3cccnc3c2-c2ccccn2)ccn1 [Example 9, 2-(1,3-dimethylpyrazol-4-yl)-N-[4-[3-(2-pyridyl)-^1H-pyrrolo[3,2-b]pyridin-2-yl]-2-pyridyl]acetamide]
27.3 nM	768 nM	553 nM	O=C(Cc1ccno1)Nc1cc(-c2[nH]c3cccnc3c2-c2ccccn2)ccn1 [Example 23, 2-isoxazol-5-yl-N-[4-[3-(2-pyridyl)-^1H-pyrrolo[3,2-b]pyridin-2-yl]-2-pyridyl]acetamide]
64.4 nM	630 nM	985 nM	Cc1nc(CC(=O)Nc2cc(-c3[nH]c4cccnc4c3-c3ccccn3)ccn2)co1 [Example 25, 2-(2-methyloxazol-4-yl)-N-[4-[3-(2-pyridyl)-^1H-pyrrolo[3,2-b]pyridin-2-yl]-2-pyridyl]acetamide]
26.5 nM	466 nM	496 nM	Cc1cc(CC(=O)Nc2cc(-c3[nH]c4cccnc4c3-c3ccccn3)ccn2)no1 [Example 26, 2-(5-methylisoxazol-3-yl)-N-[4-[3-(2-pyridyl)-^1H-pyrrolo[3,2-b]pyridin-2-yl]-2-pyridyl]acetamide]
39.1 nM	445 nM	359 nM	Cc1nc(CC(=O)Nc2cc(-c3[nH]c4cccnc4c3-c3ccccn3)ccn2)cs1 [Example 3, 2-(2-methylthiazol-4-yl)-N-[4-[3-(2-pyridyl)-^1H-pyrrolo[3,2-b]pyridin-2-yl]-2-pyridyl]acetamide]
14.8 nM	341 nM	344 nM	O=C(Cc1ccn(CC(F)(F)F)n1)Nc1cc(-c2[nH]c3cccnc3c2-c2ccccn2)ccn1 [Example 20, N-[4-[3-(2-pyridyl)-^1H-pyrrolo[3,2-b]pyridin-2-yl]-2-pyridyl]-2-[1-(2,2,2-trifluoroethyl)pyrazol-3-yl]acetamide]
27 nM	337 nM	357 nM	O=C(Cc1ccns1)Nc1cc(-c2[nH]c3cccnc3c2-c2ccccn2)ccn1 [Example 22, 2-isothiazol-5-yl-N-[4-[3-(2-pyridyl)-^1H-pyrrolo[3,2-b]pyridin-2-yl]-2-pyridyl]acetamide]
15.4 nM	220 nM	179 nM	Cc1nc(C)c(CC(=O)Nc2cc(-c3[nH]c4cccnc4c3-c3ccccn3)ccn2)s1 [Example 18, 2-(2,4-dimethylthiazol-5-yl)-N-[4-[3-(2-pyridyl)-^1H-pyrrolo[3,2-b]pyridin-2-yl]-2-pyridyl]acetamide]
7.89 nM	125 nM	91.1 nM	O=C(Cc1cnc2ccccc2n1)Nc1cc(-c2[nH]c3cccnc3c2-c2ccccn2)ccn1 [Example 6, N-[4-[3-(2-pyridyl)-^1H-pyrrolo[3,2-b]pyridin-2-yl]-2-pyridyl]-2-quinoxalin-2-yl-acetamide]

Reference: patent US20250188075A1, “SUBSTITUTED HETEROCYCLIC CSNK1 INHIBITORS” (The Broad Institute, Inc., priority 2022, published 2025)
